These molecules were tested on Eotaxin-3 (CCL26) release in human whole blood stimulated with IL-4 (assay: Human whole blood eotaxin-3 assay (IL-4 stimulated, Eotaxin-3 release)). Conditions: Homo sapiens, 48 h.
Format: cell-based
Procedure, shortened: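 Lithium-heparin blood preincubated 2 h at 37° C with 4-fold compound dilutions (0.5% DMSO, triplicates), then stimulated with 400 pM recombinant human IL-4 for 48 h. Eotaxin-3 in plasma supernatant measured by MSD immunoassay.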
In the case of CNc1ccc(-c2ccnc3c2cc(CN2CC[C@@H](c4ccc(C(=O)N(C)C)cc4)C[C@@H]2C)n3C)nc1 (single isomer, unassigned) [Example 1o28], the Emax is reported as less than 20%. In the case of [2H]C([2H])([2H])N(C(=O)c1cnc(C2=CCN(Cc3cc4c(-c5cnc(N)cc5F)ccnc4n3C)CC2)nc1)C([2H])([2H])[2H] [Example 1z11, 2-(1-((4-(6-amino-4-fluoropyridin-3-yl)-1-methyl-1H-pyrrolo[2,3-b]pyridin-2-yl)methyl)-1,2,3,6-tetrahydropyridin-4-yl)-N,N-bis(methyl-d3)pyrimidine-5-carboxamide], the Emax is reported as 20 to 30%. For CNc1ccc(-c2ccnc3c2cc(CN2CC[C@@H](c4ccc(C(=O)N(C)C)cc4)[C@H](F)C2)n3C)nc1 (stereo in doubt) [Example 1o17, 4-((3S,4S)-3-fluoro-1-((1-methyl-4-(5-(methylamino)pyridin-2-yl)-1H-pyrrolo[2,3-b]pyridin-2-yl)methyl)piperidin-4-yl)-N,N-dimethylbenzamide], the Emax was less than 20%. CNc1ccc(-c2ccnc3c2cc(CN2CC=C(c4ccc(C(=O)N(C)C)cn4)CC2)n3C)nn1 [Example 1p8, N,N-Dimethyl-6-[1-[[1-methyl-4-[6-(methylamino)pyridazin-3-yl]pyrrolo[2,3-b]pyridin-2-yl]methyl]-3,6-dihydro-2H-pyridin-4-yl]pyridine-3-carboxamide] gave an Emax of less than 20%. With CN(C)C(=O)c1ncc(C2=CCN(Cc3cc4c(-c5ccc(N)nn5)ccnc4n3C)CC2)cn1 [Example 1z21, 5-(1-((4-(6-aminopyridazin-3-yl)-1-methyl-1H-pyrrolo[2,3-b]pyridin-2-yl)methyl)-1,2,3,6-tetrahydropyridin-4-yl)-N,N-dimethylpyrimidine-2-carboxamide] the Emax was 20 to 30%. With CNc1ccc(-c2ccnc3c2cc(CN2CCN(c4ccc(C(=O)N(C)C)cn4)CC2)n3C)nn1 [Example 1p9, N,N-Dimethyl-6-[4-[[1-methyl-4-[6-(methylamino)pyridazin-3-yl]pyrrolo[2,3-b]pyridin-2-yl]methyl]piperazin-1-yl]pyridine-3-carboxamide] the Emax was less than 20%. CN(C)C(=O)c1ccc(C2CCN(Cc3cc4c(-c5ccc(N)nn5)ccnc4n3C)CC2)cc1 [Example 1z22, 4-(1-((4-(6-aminopyridazin-3-yl)-1-methyl-1H-pyrrolo[2,3-b]pyridin-2-yl)methyl)piperidin-4-yl)-N,N-dimethylbenzamide] showed an Emax of less than 20%.

Same assay, conditions: Homo sapiens, Hec50, 48 h
For CNc1ccc(-c2ccnc3c2cc([C@@H](C)N2CC=C(c4c(C)cc(C(=O)N(C)C)cc4F)CC2)n3C)cn1 [Example 1z38, (R)-3-fluoro-N,N,5-trimethyl-4-(1-(1-(1-methyl-4-(6-(methyl-amino)pyridin-3-yl)-1H-pyrrolo[2,3-b]pyridin-2-yl)ethyl)-1,2,3,6-tetrahydropyridin-4-yl)benzamide], the EC50 was 12.9 nM. [2H]C([2H])([2H])N(C(=O)c1ccc(C2=CCN([C@@H](C)c3cc4c(-c5cnc(N)c(C)c5)ccnc4n3C)CC2)cc1)C([2H])([2H])[2H] [Example 1af58, (S)-4-(1-(1-(4-(6-Amino-5-methylpyridin-3-yl)-1-methyl-1H-pyrrolo[2,3-b]pyridin-2-yl)ethyl)-1,2,3,6-tetrahydropyridin-4-yl)-N,N-bis(methyl-d3)benzamide] showed an EC50 of 638 nM. In the case of [2H]C([2H])([2H])N(C(=O)c1cnc(C2=CCN(Cc3cc4c(-c5ccc(N)nc5)ccnc4n3C)CC2)nc1)C([2H])([2H])[2H] [Example 1af73, 2-(1-((4-(6-Aminopyridin-3-yl)-1-methyl-1H-pyrrolo[2,3-b]pyridin-2-yl)methyl)-1,2,3,6-tetrahydropyridin-4-yl)-N,N-bis(methyl-d3)pyrimidine-5-carboxamide], the EC50 is reported as 46.3 nM. In the case of CN(C)C(=O)c1ccc(C2=CCN(Cc3cc4c(-c5ccc(N)nn5)ccnc4n3C)CC2)cc1 [Example 1z1, 4-(1-((4-(6-aminopyridazin-3-yl)-1-methyl-1H-pyrrolo[2,3-b]pyridin-2-yl)methyl)-1,2,3,6-tetrahydropyridin-4-yl)-N,N-dimethylbenzamide], the EC50 is reported as 5.76 nM. Cc1cc(C(=O)N(C)C)cnc1C1=CCN(Cc2cc3c(-c4ccc(N)nn4)ccnc3n2C)CC1 [Example 1ae22, 1′-((4-(6-Aminopyridazin-3-yl)-1-methyl-1H-pyrrolo[2,3-b]pyridin-2-yl)methyl)-N,N,3-trimethyl-1′,2′,3′,6′-tetrahydro-[2,4′-bipyridine]-5-carboxamide] showed an EC50 of 392 nM. In the case of CN(C)C(=O)c1ccc(C2=CCN(Cc3cc4c(-c5ccc(N)nc5)ccnc4n3C)CC2)c(C2CC2)c1 [Example 1z23, 4-(1-((4-(6-aminopyridin-3-yl)-1-methyl-1H-pyrrolo[2,3-b]pyridin-2-yl)methyl)-1,2,3,6-tetrahydropyridin-4-yl)-3-cyclopropyl-N,N-dimethylbenzamide], the EC50 is reported as 853 nM. CN(C)C(=O)c1cc(F)c(C2=CCN(Cc3cc4c(-c5ccc(N)nn5)ccnc4n3C)CC2)c(Cl)c1 [Example 1af75, 4-(1-((4-(6-Aminopyridazin-3-yl)-1-methyl-1H-pyrrolo[2,3-b]pyridin-2-yl)methyl)-1,2,3,6-tetrahydropyridin-4-yl)-3-chloro-5-fluoro-N,N-dimethylbenzamide] gave an EC50 of 159 nM. [2H]C([2H])([2H])N(C(=O)c1ccc(N2CCN(Cc3cc4c(-c5ccc(NC)nn5)ccnc4n3C)CC2)c(C)c1)C([2H])([2H])[2H] [Example 1p4, 3-Methyl-4-[4-[[1-methyl-4-[6-(methylamino)pyridazin-3-yl]pyrrolo[2,3-b]pyridin-2-yl]methyl]piperazin-1-yl]-N,N-bis(trideuteriomethyl)benzamide] showed an EC50 of 13300 nM. Work on [2H]C([2H])([2H])N(C(=O)c1ccc(C2=CCN([C@@H](C)c3cc4c(-c5cnc(N)c(F)c5)ccnc4n3C)CC2)cc1)C([2H])([2H])[2H] [Example 1af56, (S)-4-(1-(1-(4-(6-Amino-5-fluoropyridin-3-yl)-1-methyl-1H-pyrrolo[2,3-b]pyridin-2-yl)ethyl)-1,2,3,6-tetrahydropyridin-4-yl)-N,N-bis(methyl-d3)benzamide] yielded an EC50 of 726 nM. [2H]C([2H])([2H])N(C(=O)c1ccc(C2CCN([C@@H](C)c3cc4c(-c5cnc(N)nn5)ccnc4n3C)CC2)cc1)C([2H])([2H])[2H] [Example 1af64, (S)-4-(1-(1-(4-(3-amino-1,2,4-triazin-6-yl)-1-methyl-1H-pyrrolo[2,3-b]pyridin-2-yl)ethyl)piperidin-4-yl)-N,N-bis(methyl-d3)benzamide] showed an EC50 of 3190 nM. Work on [2H]C([2H])([2H])N(C(=O)c1cc(C)c(C2=CCN(Cc3cc4c(-c5ccc(NC)nn5)ccnc4n3C)CC2)c(F)c1)C([2H])([2H])[2H] [Example 1z34, 3-fluoro-5-methyl-N,N-bis(methyl-d3)-4-(1-((1-methyl-4-(6-(methylamino)pyridazin-3-yl)-1H-pyrrolo[2,3-b]pyridin-2-yl)methyl)-1,2,3,6-tetrahydropyridin-4-yl)benzamide] yielded an EC50 of 132 nM. In the case of [2H]C([2H])([2H])N(C(=O)c1ccc(C2=CCN(Cc3cc4c(-c5ccc(NC)nn5)ccnc4n3C)CC2)c(C)c1)C([2H])([2H])[2H] [Example 1p7, 3-Methyl-4-[1-[[1-methyl-4-[6-(methylamino)pyridazin-3-yl]pyrrolo[2,3-b]pyridin-2-yl]methyl]-3,6-dihydro-2H-pyridin-4-yl]-N,N-bis(trideuteriomethyl)benzamide], the EC50 is reported as 504 nM. CNc1ccc(-c2ccnc3c2cc(CN2CC=C(c4c(C)cc(C(=O)N(C)C)cc4F)CC2)n3C)nn1 [Example 1p17, 3-Fluoro-N,N,5-trimethyl-4-[1-[[1-methyl-4-[6-(methylamino)pyridazin-3-yl]pyrrolo[2,3-b]pyridin-2-yl]methyl]-3,6-dihydro-2H-pyridin-4-yl]benzamide] gave an EC50 of 94 nM. Work on Cc1cc(C(=O)N(C)C)cc(F)c1C1=CCN([C@@H](C)c2cc3c(-c4ccc(N)cn4)ccnc3n2C)CC1 [Example 1z32, (S)-4-(1-(1-(4-(5-aminopyridin-2-yl)-1-methyl-1H-pyrrolo[2,3-b]pyridin-2-yl)ethyl)-1,2,3,6-tetrahydropyridin-4-yl)-3-fluoro-N,N,5-trimethylbenzamide] yielded an EC50 of 37.6 nM. [2H]C([2H])([2H])N(C(=O)c1ccc(C2CCN([C@@H](C)c3cc4c(-c5ccc(NCCOC)nc5)ccnc4n3C)CC2)cc1)C([2H])([2H])[2H] [Example 1af50, (S)-4-(1-(1-(4-(6-((2-methoxyethyl)amino)pyridin-3-yl)-1-methyl-1H-pyrrolo[2,3-b]pyridin-2-yl)ethyl)piperidin-4-yl)-N,N-bis(methyl-d3)benzamide] showed an EC50 of 466 nM. For [2H]C([2H])([2H])N(C(=O)c1ccc(C2=CCN([C@@H](C)c3cc4c(-c5ncc(N)cc5C(F)(F)F)ccnc4n3C)CC2)cc1)C([2H])([2H])[2H] [Example 1af57, (S)-4-(1-(1-(4-(5-Amino-3-(trifluoromethyl)pyridin-2-yl)-1-methyl-1H-pyrrolo[2,3-b]pyridin-2-yl)ethyl)-1,2,3,6-tetrahydropyridin-4-yl)-N,N-bis(methyl-d3)benzamide], the EC50 was 17900 nM. Cc1cc(C(=O)N(C)C)cc(F)c1C1=CCN(C(C)c2cc3c(-c4ccc(N)cn4)ccnc3n2C)CC1 (centres unmarked) [Example 1z31, 4-(1-(1-(4-(5-aminopyridin-2-yl)-1-methyl-1H-pyrrolo[2,3-b]pyridin-2-yl)ethyl)-1,2,3,6-tetrahydropyridin-4-yl)-3-fluoro-N,N,5-trimethylbenzamide] was tested, and the EC50 was 62.8 nM. For CNc1ccc(-c2ccnc3c2cc(CN2CC=C(c4ncc(C(=O)N(C)C)cc4C)CC2)n3C)nn1 [Example 1p11, N,N,5-Trimethyl-6-[1-[[1-methyl-4-[6-(methylamino)pyridazin-3-yl]pyrrolo[2,3-b]pyridin-2-yl]methyl]-3,6-dihydro-2H-pyridin-4-yl]pyridine-3-carboxamide], the EC50 was 4530 nM. CNc1ccc(-c2ccnc3c2cc(CN2CC=C(c4ccc(C(=O)N(C)C)cc4OC)CC2)n3C)nn1 [Example 1p14, 3-Methoxy-N,N-dimethyl-4-[1-[[1-methyl-4-[6-(methylamino)pyridazin-3-yl]pyrrolo[2,3-b]pyridin-2-yl]methyl]-3,6-dihydro-2H-pyridin-4-yl]benzamide] was tested, and the EC50 was 3200 nM.
